US10301308B2, “Azetidine derivatives for tau imaging” (Eli Lilly and Company, priority 2015, dated 2019)

Assays:
[1] = Preliminary stability of Compound 8 formulations (radiochemical purity by HPLC); format: physicochemical
Method: The HPLC fraction containing the purified 3-(3-[18F]-fluoroazetidin-1-yl)-8-methylbenzo[4,5]imidazo[1,2-a]pyridine is diluted with 0.5% (w/v) sodium ascorbate in WFI (40 mL). The diluted solution is then passed through a Sep-Pak® C18 Plus Light Cartridge (130 mg Sorbent per Cartridge, 55-105 μm Particle Size, Waters Part No. WAT023501; conditioned with ethanol (5 mL) then WFI (5 mL) prior to use) and the retained 3-(3-[18F]-fluoroazetidin-1-yl)-8-methylbenzo[4,5]imidazo[1,2-a]pyridine is washed with 0.5% (w/v) sodium ascorbate in water for injection solution (10 mL). 3-(3-[18F]-fluoroazetidin-1-yl)-8-methylbenzo[4,5]imidazo[1,2-a]pyridine is eluted off the C18 cartridge using dehydrated alcohol, USP (1 mL) into a flask containing 7 mL of 0.5% (w/v) sodium ascorbate in 0.9% sodium chloride for injection, USP. The C18 cartridge is then rinsed with an additional 2 mL of 0.5% (w/v) sodium ascorbate in 0.9% sodium chloride for injection, USP. The resulting solution (total 10 mL) is sterile filtered through a 0.22 μm Millex GV PVDF filter (Millipore SLGV013SL) into the bulk product vial (BPV: 30 mL Sterile Empty Vial from Allergy Laboratories with a 20 mm chlorobutyl stopper). A sample from the BPV is taken out for quality control (see FIG. 2 for representative chromatogram) by HPLC using the gradient method detailed in Table 1 below.
Preliminary stability of 3-(3-[18F]-fluoroazetidin-1-yl)-8-methylbenzo[4,5]imidazo[1,2-a]pyridine (Compound 8) formulations are evaluated. Samples from batches (size ranging from 235 mCi to 471 mCi) are taken and analyzed by HPLC for radiochemical purity over an 6 hour time period.

[2] = molecular target: PHF (tau from Alzheimer's disease donors) (Homo sapiens, UniProt P10636); test: Saturation binding of radiolabeled compound to PHF (Kd determination); details: tau obtained from donors with Alzheimer's disease
Source text: Purified, soluble PHF is isolated from AD brain tissue using a protocol modified from the procedure described by Jicha, et al. (G. A. Jicha, A. O'Donnell, C. Weaver (1999) “Hierarchical phosphorylation of recombinant tau by the paired-helical filament-associated protein kinase is dependent on cyclic AMP-dependent protein kinase” J Neurochem. 72(1):214). Briefly, AD cortex is homogenized using a handheld Kinematica Polytron, followed by high pressure batch—gas expansion using a Parr Cell disruption bomb. Crude homogenate is centrifuged at 28 kg to pellet cell debris. […]
The dissociation constant [Kd] for the radiolabeled compound 3-(3-[18F]-fluoroazetidin-1-yl)-8-methylbenzo[4,5]imidazol[1,2-a]pyridine is determined by saturation binding, in which the total and nonspecific binding of the radioligand are measured at various radioligand concentrations. […] After incubation for 1.5 h at 37° C., the bound radioactivity is harvested by vacuum filtration onto Millipore MultiScreenHTS 96-well glass fiber FB filter plates, using a Millipore MultiScreenHTS Vacuum Manifold, followed by five washes with PBS. Filters containing bound 3-(3-[18F]-fluoroazetidin-1-yl)-8-methylbenzo[4,5]imidazo[1,2-a]pyridine are assayed for radioactivity in a Wizard 2480 automatic gamma-counter [Perkin Elmer]. […]

[3] = test system: normal human brain tissue; test: Autoradiography on normal versus AD human brain slices, less stringent or alcohol free washes; format: binding
Source text: In order to show the absence of non-tau binding, autoradiography scans are obtained from 3-(3-[18F]-fluoroazetidin-1-yl)-8-methylbenzo[4,5]imidazo[1,2-a]pyridine on normal human brain tissue. The experimental procedure is the same as provided in Example 5 except that only 20 uCi of 18F-ligand is applied to the tissue slices and the washing conditions are less stringent. […] The autoradiography is further carried out with no ethanol in the washing solutions.

[4] = batch 235 mCi, 23.5 mCi/mL, 10% EtOH, 0.45% Sodium Ascorbate in 0.9% Sodium Chloride
[5] = batch 295 mCi, 14.8 mCi/mL, 10% EtOH, 0.45% Sodium Ascorbate in 0.9% Sodium Chloride
[6] = batch 337 mCi, 33.7 mCi/mL, 10% EtOH, 0.45% Sodium Ascorbate in 0.9% Sodium Chloride
[7] = batch 471 mCi, 47.1 mCi/mL, 10% EtOH in 0.9% Sodium Chloride (no sodium ascorbate)

Sequence of PHF (tau from Alzheimer's disease donors) (P10636 623-708 limits assumed): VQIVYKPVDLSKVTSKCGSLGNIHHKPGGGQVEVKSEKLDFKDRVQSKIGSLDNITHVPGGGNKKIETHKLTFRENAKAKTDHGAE

What does the source list for `Cc1ccc2nc3cc(N4CC([18F])C4)ccn3c2c1` [Compound 8, 3-(3-[18F]-fluoroazetidin-1-yl)-8-methylbenzo[4,5]imidazo[1,2-a]pyridine]?
Stability Results (% RCP) T0 ([1]; batch 235 mCi, 23.5 mCi/mL, 10% EtOH (v/v), 0.45% (w/v) Sodium Ascorbate in 0.9% Sodium Chloride Injection, USP): 98 % RCP; Stability Results (% RCP) T0+2 h [1, 4]: 97 % RCP; Stability Results (% RCP) T0+4 h [1, 4]: 97 % RCP; Stability Results (% RCP) T0+6 h ([1]; batch 235 mCi, 23.5 mCi/mL, 10% EtOH, 0.45% Sodium Ascorbate in 0.9% Sodium Chloride, T0+6 h): 97 % RCP; Stability Results (% RCP) T0 [1, 5]: 97 % RCP; Stability Results (% RCP) T0+2 h [1, 5]: 96 % RCP; Stability Results (% RCP) T0+4 h [1, 5]: 96 % RCP; Stability Results (% RCP) T0+6 h ([1]; batch 295 mCi, 14.8 mCi/mL, 10% EtOH, 0.45% Sodium Ascorbate in 0.9% Sodium Chloride, T0+6 h): 96 % RCP; Stability Results (% RCP) T0 [1, 6]: 98 % RCP; Stability Results (% RCP) T0+2 h [1, 6]: 97 % RCP; Stability Results (% RCP) T0+4 h [1, 6]: 96 % RCP; Stability Results (% RCP) T0+6 h ([1]; batch 337 mCi, 33.7 mCi/mL, 10% EtOH, 0.45% Sodium Ascorbate in 0.9% Sodium Chloride, T0+6 h): 96 % RCP; Stability Results (% RCP) T0 ([1]; batch 471 mCi, 47.1 mCi/mL, 10% EtOH (v/v) in 0.9% Sodium Chloride Injection, USP (no sodium ascorbate)): 89 % RCP; Stability Results (% RCP) T0+2 h [1, 7]: 89 % RCP; Stability Results (% RCP) T0+4 h [1, 7]: 80 % RCP; Stability Results (% RCP) T0+6 h ([1]; batch 471 mCi, 47.1 mCi/mL, 10% EtOH in 0.9% Sodium Chloride (no sodium ascorbate), T0+6 h column, value taken at 5 h): 0 (5 h) % RCP; stability of formulation over time ([1]; batch formulated without sodium ascorbate): deteriorates over time and degrades by 5 hours; radiochemical purity retained ([1]; batches formulated with sodium ascorbate, up to 6 hours): 96-97%; Kd [2]: 0.85 ± 0.02 nM; blocking of signal in AD brain tissue ([3]; AD30121, frontal cortex): can be blocked by non-radiolabelled compound or with the known tau PET tracer T807; autoradiography signal in normal cortical or white matter tissue compared to [18F]T807 ([3]; no ethanol in the washing solutions): much lower autoradiography signal; radioactivity signal in normal tissue ([3]; washes PBS, 10% ethanol/PBS, 30% ethanol/PBS, PBS, vs AD brain tissue): considerably lower than in AD brain tissue
